Measurements: PMC12118597 (Science Advances, 2025)
Values joined by “and” are separate entries in the source; they are usually repeats but may differ in a detail not shown here. Equal values may be shown once. “Also recorded” adds a separate entry of the source. Read-outs that look alike come from different tables or passages of the source.

Legend:
[1] = target: T1, SARS-CoV-2 NSP3 macrodomain (Mac1) (Severe acute respiratory syndrome coronavirus 2, UniProt P0DTD1); assay: biochemical; assay type: binding
[2] = target: T1, SARS-CoV-2 NSP3 macrodomain (Mac1); assay type: binding; conditions: for Total number of conformations: ligand conformations modeled in the crystal structure; for 2*(1-BDC) (%): occupancy estimate from PanDDA; for 1-BDC (PanDDA run, DMSO background map): event 1
[3] = HTRF binding curve, SARS-CoV-2 Mac1
[4] = SARS CoV-2 macrodomain HTRF assay, dose-response
[5] = PanDDA background density correction factor
[6] = crystal soak 10 mM, P43 crystal form
[7] = ligand-bound crystal structure obtained (TRUE)
[8] = refined crystallographic occupancy
[9] = site occupied in X-ray crystal structure
[10] = TRUE = crystal structure with ligand obtained
[11] = site of ligand in X-ray crystal structure
[12] = PanDDA background density correction, 1-BDC
[13] = crystal soak, 10 mM soak concentration, P43 crystal form
[14] = crystal soak concentration 10 mM
[15] = crystal soak concentration 10 mM, P43 crystals
[16] = open state of Phe132 loop seen in the ligand-bound structure

SMILES | Hill slope [1, 3] | Hill slope [1, 4] | Occupancy difference (refined_occupancy - 2*(1-BDC)) [2] | 1-BDC [2, 5] | PanDDA run, overall: Hit [2, 6] | PanDDA run, DMSO background map: 1-BDC ([2]; crystal soak 10 mM) | PanDDA run, DMSO background map: Hit ([2]; crystal soak 10 mM) | Total number of conformations [2] | X-ray crystal structure [2, 7] | 2*(1-BDC) (%) [2] | Refined ligand occupancy (%) [2, 8] | Binding site [2, 9] | 1-BDC [2, 12] | Refined ligand occupancy (%) ([2]; crystallographic refinement) | Hit (PanDDA run, DMSO background map) [2, 14] | Modeled (PanDDA run, DMSO background map) [2, 14] | 1-BDC (PanDDA run, DMSO background map) [2, 14] | Hit (PanDDA run, overall) [2, 15] | Modeled (PanDDA run, overall) [2, 15] | Modeling comment (PanDDA run, overall) [2, 15] | further results
OCC1C2CCC(C2)N1c1ncnc2[nH]ccc12 (centres unmarked) [AVI-3713] | 1.1 | 1.1 | 0 | 0.29 | TRUE | 0.29 | TRUE | 1 | TRUE | 58% | 58% | Adenosine |  |  |  |  |  |  |  |  | 
OC[C@@H]1C[C@@H]2CCC[C@@H]2N1c1ncnc2[nH]ccc12 [AVI-3720] | 1.2 | 1.2 | 0 | 0.29 | TRUE | 0.29 | TRUE | 1 | TRUE | 58% | 58% | Adenosine |  |  |  |  |  |  |  |  | Phe132 loop open state [2]: TRUE
O=C(O)C(F)(F)F.OC1([C@H]2CCCN2c2ncnc3[nH]ccc23)Cc2ccccc2C1 [AVI-3731] | 1.1 | 1.1 | 0 | 0.2 | TRUE | 0.2 | TRUE | 1 | TRUE | 40% | 40% | Adenosine |  |  |  |  |  |  |  |  | inhibition at 200 µM ([1]; SARS CoV-2 macrodomain HTRF assay, single dose concentration 200 μM, read-out: Average % competition): 100%; inhibition at 200 µM ([1]; compound at 200 μM, mean of three to four technical replicates, read-out: % competition at 200 μM (preliminary HTRF screen)): 100%
OCCC(CO)Nc1ncnc2[nH]ccc12 (centres unmarked) [AVI-3734] | 1.2 | 1.2 | 0 | 0.25 | TRUE | 0.25 | TRUE | 1 |  | 50% | 50% |  |  |  |  |  |  |  |  |  | X-ray crystal structure [2, 10]: TRUE; Binding site [2, 11]: Adenosine
CC(O)C1CCCN1c1ncnc2[nH]ccc12 (centres unmarked) [AVI-4062] | 1.1 | 1.1 |  |  |  |  |  |  | TRUE | 52% |  | Adenosine | 0.26 | 70% |  |  |  |  |  |  | Hit (PanDDA run, DMSO background map) ([2]; crystal soak 10 mM): TRUE; 1-BDC (PanDDA run, DMSO background map) ([2]; crystal soak 10 mM): 0.26 and 0.29; Hit (PanDDA run, overall) [2, 13]: TRUE
C[C@H]1CC[C@H](CO)N(c2ncnc3[nH]ccc23)C1 [AVI-4063] | 1.1 | 1.1 |  |  |  |  |  |  | TRUE | 32% |  | Adenosine | 0.16 | 50% |  |  |  |  |  |  | Hit (PanDDA run, DMSO background map) ([2]; crystal soak 10 mM): TRUE; 1-BDC (PanDDA run, DMSO background map) ([2]; crystal soak 10 mM): 0.21 and 0.16; Hit (PanDDA run, overall) [2, 13]: TRUE
C[C@@H]1CCN(c2ncnc3[nH]ccc23)[C@H](CO)C1 [AVI-4064] | 1.2 | 1.2 |  |  |  |  |  |  | TRUE | 38% |  | Adenosine | 0.19 | 38% |  |  |  |  |  |  | Hit (PanDDA run, DMSO background map) ([2]; crystal soak 10 mM): TRUE; 1-BDC (PanDDA run, DMSO background map) ([2]; crystal soak 10 mM): 0.19; Hit (PanDDA run, overall) [2, 13]: TRUE
O=C(O)C(F)(F)F.OC[C@H](Cc1ccc(O)cc1)Nc1ncnc2[nH]ccc12 [AVI-4066] | 1.1 | 1.1 |  |  |  |  |  |  |  | 40% |  |  | 0.2 | 50% |  |  |  |  |  |  | X-ray crystal structure [2, 10]: TRUE; Hit (PanDDA run, DMSO background map) ([2]; crystal soak 10 mM): TRUE; 1-BDC (PanDDA run, DMSO background map) ([2]; crystal soak 10 mM): 0.2 and 0.37 and 0.38; Hit (PanDDA run, overall) [2, 13]: TRUE; Binding site [2, 11]: Adenosine
CC(C)(O)C1N(c2ncnc3[nH]ccc23)CCC1(C)C (centres unmarked) [AVI-4126] | 1.3 | 1.3 |  |  |  |  |  |  | TRUE | 32% |  | Adenosine | 0.16 | 40% | TRUE | TRUE | 0.17 and 0.16 | TRUE | TRUE | Duplicate, not modeled | Phe132 loop open state [2, 16]: TRUE
CC(C)(O)C1C2CCCCC2CN1c1ncnc2[nH]ccc12 (centres unmarked) [AVI-4127] | 1.3 | 1.3 |  |  |  |  |  |  | TRUE | 50% |  | Adenosine | 0.25 | 60% | TRUE | TRUE | 0.23 and 0.25 | TRUE | TRUE | Duplicate, not modeled | Phe132 loop open state [2, 16]: TRUE
CC(C)(O)C1C2CCC2CN1c1ncnc2[nH]ccc12 (centres unmarked) [AVI-4128] | 1.2 | 1.2 |  |  |  |  |  |  | TRUE | 40% |  | Adenosine | 0.2 | 60% | TRUE | TRUE | 0.27 and 0.2 | TRUE | TRUE | Duplicate, not modeled; also recorded: Weak density for open conformation | 
Cc1c[nH]c2ncnc(NCC3(O)CCOCC3)c12 [AVI-4194, 4-(((5-methyl-7H-pyrrolo[2,3-d]pyrimidin-4-yl)amino)methyl)tetrahydro-2H-pyran-4-ol] | 1.3 | 1.3 |  |  |  |  |  |  | TRUE | 18% |  | Adenosine | 0.09 | 18% | TRUE | TRUE | 0.13 and 0.09 | TRUE | TRUE | Duplicate, not modeled | 
Cc1c[nH]c2ncnc(NCC3(O)CCSCC3)c12 [AVI-4195, 4-(((5-methyl-7H-pyrrolo[2,3-d]pyrimidin-4-yl)amino)methyl)tetrahydro-2H-thiopyran-4-ol] | 1.2 | 1.2 |  |  |  |  |  |  | TRUE | 28% |  | Adenosine | 0.14 | 28% | TRUE | TRUE | 0.14 | TRUE | TRUE | Duplicate, not modeled | 
